{"source": "patent US20220031712A1", "about": "“PREPARATION OF A PHARMACEUTICAL COMPOSITION OF OLODATEROL AND BUDESONIDE” (priority 2020, published 2022)", "experiment": "Thermal stability of Samples 1-4 at 60° C. (HPLC content and impurity detection)", "format": "physicochemical", "protocol": "The thermal stability of samples 1˜4 of example 1 at 60° C. is provided below:\nImpurity detection method: • Mobile phase A: accurately weigh 3.17 g of sodium dihydrogen phosphate, add 1 L of pure water to dissolve, adjust the pH of the solution to 3.20 with phosphoric acid. Mobile Phase B: Acetonitrile. • Instrument ID: HPLC. • Column ID: YMC-Triart C18 250*4.6 5 μm. • Detection wavelength: 230 nm. • Flow rate: 1.0 mL/min. • Running time: 35 min.", "note": "Where a name gives a salt, the structure may show the parent alone.", "data": [{"compound": "CCCC1O[C@@H]2C[C@H]3[C@@H]4CCC5=CC(=O)C=C[C@]5(C)[C@H]4[C@@H](O)C[C@]3(C)[C@]2(C(=O)CO)O1", "note": "(stereo partly drawn) [BD, 11β,21-dihydroxy-16α,17α-(butylidenebis(oxy))pregna-1,4-diene-3,20-dione]", "values": [{"measurement": "stability of BD in the formulation", "setting": "at pH 4.0 and 4.5, pH adjusted with citric acid", "result": "relatively stable"}]}, {"compound": "COc1ccc(CC(C)(C)NC[C@H](O)c2cc(O)cc3c2OCC(=O)N3)cc1", "note": "[OH, Olodaterol hydrochloride]", "values": [{"measurement": "stability of OH in the formulation", "setting": "at pH 5.5 and pH 4.0, pH adjusted with citric acid", "result": "relatively stable"}]}]}
